# Target: T1, yeast HSP90 (Saccharomyces cerevisiae, UniProt P02829)
# T1 construct: made in house; host or cells: E. coli
# Experiment: Malachite green ATPase assay
# Assay type: biochemical
# Conditions: activity range
# Excerpt: The intrinsic ATPase activity of HSP90 may be measured using yeast HSP90 as a model system. The assay, based on the use of malachite green for the measurement of inorganic phosphate, was used to test the HSP90 inhibitory activity of the compounds of the Examples herein.
# Malachite Green ATPase Assay
# Chemicals are of the highest purity commercially available and all aqueous solutions are made up in AR water. Because of the need to minimise contamination with inorganic phosphate, precautions should be taken with solutions and apparatus used in the assays. Glassware and pH meters are rinsed with double distilled or deionised water before use and, wherever possible, plastic ware should be used. Gloves are worn for all procedures. • (1) Greiner 384-well (Greiner 781101) or Costar 384-well flat-bottomed polystyrene multiwell plates (VWR). • (2) Assay buffer of (a) 100 mM Tris-HCl, pH 7.4, (b) 150 mM KCl, (c) 6 mM MgCl2. Stored at room temperature. • (3) 0.0812% (w/v) malachite green (M 9636, Sigma Aldrich Ltd., Poole, UK). Stored at room temperature. • (4) 2.32% (w/v) polyvinyl alcohol USP (P 1097, Sigma Aldrich Ltd, Poole, UK) in boiling water (see Comment 1), allowed to cool, and stored at room temperature. • (5) 5.72% (w/v) ammonium molybdate in 6 M hydrochloric acid. Stored at room temperature. • (6) 34% (w/v) sodium citrate. Stored at room temperature. • (7) 100 mM ATP, disodium salt, special quality (47699, Sigma Aldrich). Stored at −20° C. • (8) E. coli expressed yeast HSP90 protein, purified >95% (see, e.g., Panaretou et al., 1998) and stored in 50 uL aliquots at −80° C.
# Method • 1. Dilute test compounds to 500 μM in AR water (DMSO concentration will be 2.5%). Transfer 2.5 μl of these compounds directly from the daughter plate to the assay plate, giving a final assay concentration of 100 μM. To obtain 12 point IC50 values, perform serial dilutions 1:2 to produce a range of assay concentrations from 100 μM to 97.6 nM (2.5% DMSO), and transfer 2.5 μl of each concentration into the assay plate. Column 1 in the assay plate contains no compound, as a negative control. An additional row with no compound is also used as a background. • 2. Prepare ATP by diluting 100 mM stock to 925 μM with assay buffer, and aliquot 5 μl of diluted ATP to each well including controls (final assay concentration 370 μM). • 3. Add 5 μl of buffer to background row. • 4. Dilute enzyme preparation to 1.05 μM with assay buffer, and aliquot 5 μl into each compound well and to the negative control column. • 5. Collect the reagents to the bottom of the well, cover plate with plate seal and incubate overnight at 37 degC. • 6. First thing in the morning prepare the Malachite Green Reagent. Add 2 parts of Malachite Green Solution, 1 part of Polyvinyl Alcohol Solution, 1 part of Ammonium Molybdate Solution, and 2 parts of AR water. • 7. Invert to mix, and leave for approximately 1 hour until the colour turns from brown to golden yellow. • 8. Add 40 μl of Malachite Green Reagent to each well, allow 5 mins for colour to develop. • 9. Add 5 μl of Sodium Citrate Reagent to each well (see comment 2) • 10. Re-cover with plate seal and shake on plate shaker for at least 15 mins. • 11. Measure Absorbance at 620 nm using a suitable plate reader (e.g. Victor, Perkin Elmer Life Sciences, Milton Keynes, UK).
# Comments • (1) The polyvinyl alcohol dissolves in boiling water with difficulty and stirring for 2-3 h is required. • (2) The time interval between addition of the malachite green reagent and the sodium citrate should be kept as short as possible in order to reduce the non-enzymatic hydrolysis of ATP. Once the sodium citrate is added, the colour is stable for up to 4 h at room temperature. • (3) Compounds can be added to the assay plates using a Biomek FX Robot (Beckman Coulter).
# T1 sequence (P02829 whole entry): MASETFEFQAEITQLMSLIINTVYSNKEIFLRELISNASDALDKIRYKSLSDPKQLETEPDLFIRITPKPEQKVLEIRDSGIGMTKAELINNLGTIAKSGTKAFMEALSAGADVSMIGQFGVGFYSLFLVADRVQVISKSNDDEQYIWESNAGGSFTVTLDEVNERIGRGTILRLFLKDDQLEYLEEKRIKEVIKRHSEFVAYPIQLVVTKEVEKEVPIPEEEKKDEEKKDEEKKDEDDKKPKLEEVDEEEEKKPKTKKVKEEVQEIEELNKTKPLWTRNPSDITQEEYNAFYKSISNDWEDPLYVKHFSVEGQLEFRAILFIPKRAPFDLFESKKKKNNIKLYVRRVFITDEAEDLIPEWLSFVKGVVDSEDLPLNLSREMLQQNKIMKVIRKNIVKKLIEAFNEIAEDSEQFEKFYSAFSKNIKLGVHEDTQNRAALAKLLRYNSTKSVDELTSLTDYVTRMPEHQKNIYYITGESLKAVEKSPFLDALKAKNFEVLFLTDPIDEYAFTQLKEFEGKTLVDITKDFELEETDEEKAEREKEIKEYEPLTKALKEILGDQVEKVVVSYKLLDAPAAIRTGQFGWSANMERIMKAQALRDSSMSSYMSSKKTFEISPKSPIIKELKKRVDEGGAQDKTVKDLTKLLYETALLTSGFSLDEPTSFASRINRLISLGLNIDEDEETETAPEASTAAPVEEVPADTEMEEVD
row,Compound,IC50 [µM]
1,Oc1cc(O)c(-c2n[nH]cc2N2CCOCC2)cc1Cl [Example 3],> 50
2,Oc1cc(O)c(-c2n[nH]cc2N2CCN(Cc3cccnc3)CC2)cc1Cl [Example 7],< 50
3,N#CCCCN1CCN(c2c[nH]nc2-c2cc(Cl)c(O)cc2O)CC1 [Example 13],< 50
4,COCCN1CCN(c2c[nH]nc2-c2cc(Cl)c(O)cc2O)CC1 [Example 14],< 50
5,COC(=O)c1cccc(CN2CCN(c3c[nH]nc3-c3cc(Cl)c(O)cc3O)CC2)c1 [Example 16],< 50
6,NC(=O)c1cccc(CN2CCN(c3c[nH]nc3-c3cc(Cl)c(O)cc3O)CC2)c1 [Example 25],< 50
7,COc1ccc(CN2CCN(c3c[nH]nc3-c3cc(Cl)c(O)cc3O)CC2)cc1 [Example 26],< 50
8,C#CC[N+]1(CC#C)CCN(c2c[nH]nc2-c2cc(Cl)c(O)cc2O)CC1 [Example 27],< 50
9,OCCCN1CCN(c2c[nH]nc2-c2cc(Cl)c(O)cc2O)CC1 [Example 30],< 50
10,COC(=O)c1ccc(C(=O)N2CCN(c3c[nH]nc3-c3cc(Cl)c(O)cc3O)CC2)cc1 [Example 32],> 50
11,Cn1c(CN2CCN(c3c[nH]nc3-c3cc(Cl)c(O)cc3O)CC2)nc2ccccc21 [Example 33],> 50
12,Oc1cc(O)c(-c2n[nH]cc2N2CCN(CCc3ccccc3)CC2)cc1Cl [Example 34],< 50
13,O=C(O)c1ccc(CN2CCN(c3c[nH]nc3-c3cc(Cl)c(O)cc3O)CC2)cc1 [Example 35],< 50
14,Oc1cc(O)c(-c2n[nH]cc2N2CCN(Cc3ccc(-c4cnns4)cc3)CC2)cc1Cl [Example 38],< 50
15,Oc1cc(O)c(-c2n[nH]cc2N2CCN(Cc3ccc(-n4cccn4)cc3)CC2)cc1Cl [Example 39],< 50
16,O=C(CN1CCN(c2c[nH]nc2-c2cc(Cl)c(O)cc2O)CC1)N1CCOCC1 [Example 40],< 50
17,CC(C)(C)OC(=O)CN1CCN(c2c[nH]nc2-c2cc(Cl)c(O)cc2O)CC1 [Example 41],> 50
18,CC(c1ccccc1)N1CCN(c2c[nH]nc2-c2cc(Cl)c(O)cc2O)CC1 (centres unmarked) [Example 43],< 50
19,Cn1cc(N2CCNCC2)c(-c2cc(Br)c(O)cc2O)n1 [Example 57],> 50
20,CCn1cc(N2CCNCC2)c(-c2cc(Br)c(O)cc2O)n1 [Example 59],> 50
21,Oc1cc(O)c(-c2n[nH]cc2N2CCNCC2)cc1CCc1cccc2c1OCO2 [Example 66],< 50
22,COc1ccc(OC)c(CCc2cc(-c3n[nH]cc3N3CCNCC3)c(O)cc2O)c1 [Example 67],< 50
23,Oc1cc(O)c(-c2n[nH]cc2N2CCNCC2)cc1CCc1ccccc1F [Example 68],< 50
24,Oc1cc(O)c(-c2n[nH]cc2N2CCNCC2)cc1CCc1ccc(F)cc1 [Example 70],< 50

# Now from value to compound:
row,IC50 [µM],Compound
1,> 50,"CC(C)(C)OC(=O)N1CCN(c2c[nH]nc2-c2cc(Cl)c(O)cc2O)CC1 [Example 1, 4-[3-(5-Chloro-2,4-dihydroxy-phenyl)-1H-pyrazol-4-yl]-piperazine-1-carboxylic acid tert-butyl ester]"
2,< 50,CN1CCN(c2c[nH]nc2-c2cc(Cl)c(O)cc2O)CC1 [Example 4]
3,> 50,"Oc1cc(O)c(-c2n[nH]cc2N2CCN(Cc3ccco3)CC2)cc1Cl [Example 5, 4-Chloro-6-[4-(4-furan-2-ylmethyl-piperazin-1-yl)-1H-pyrazol-3-yl]-benzene-1,3-diol]"
4,< 50,CCN1CCN(c2c[nH]nc2-c2cc(Cl)c(O)cc2O)CC1 [Example 6]
5,> 50,"NNC(=O)CN1CCN(c2c[nH]nc2-c2cc(Cl)c(O)cc2O)CC1 [Example 8, {4-[3-(5-Chloro-2,4-dihydroxy-phenyl)-1H-pyrazol-4-yl]-piperazin-1-yl}-acetic acid hydrazide]"
6,> 50,"OCCN1CCN(c2c[nH]nc2-c2cc(Cl)c(O)cc2O)CC1 [Example 9, 4-Chloro-6-{4-[4-(2-hydroxy-ethyl)-piperazin-1-yl]-1H-pyrazol-3-yl}-benzene-1,3-diol]"
7,> 50,N#CCN1CCN(c2c[nH]nc2-c2cc(Cl)c(O)cc2O)CC1 [Example 10]
8,> 50,N#CCOc1cc(O)c(-c2n[nH]cc2N2CCN(CC#N)CC2)cc1Cl [Example 11]
9,< 50,COC(=O)c1ccc(CN2CCN(c3c[nH]nc3-c3cc(Cl)c(O)cc3O)CC2)o1 [Example 15]
10,< 50,Oc1cc(O)c(-c2n[nH]cc2N2CCN(Cc3ncon3)CC2)cc1Cl [Example 17]
11,< 50,Oc1cc(O)c(-c2n[nH]cc2N2CCN(Cc3ccc(Cl)cc3)CC2)cc1Cl [Example 18]
12,< 50,N#Cc1cccc(CN2CCN(c3c[nH]nc3-c3cc(Cl)c(O)cc3O)CC2)c1 [Example 19]
13,< 50,NC(=O)CN1CCN(c2c[nH]nc2-c2cc(Cl)c(O)cc2O)CC1 [Example 20]
14,< 50,COC(=O)c1ccc(CN2CCN(c3c[nH]nc3-c3cc(Cl)c(O)cc3O)CC2)cc1 [Example 21]
15,< 50,N#Cc1ccc(CN2CCN(c3c[nH]nc3-c3cc(Cl)c(O)cc3O)CC2)cc1 [Example 22]
16,< 50,N#Cc1ccccc1CN1CCN(c2c[nH]nc2-c2cc(Cl)c(O)cc2O)CC1 [Example 23]
17,< 50,O=C(O)c1ccc(CN2CCN(c3c[nH]nc3-c3cc(Cl)c(O)cc3O)CC2)o1 [Example 28]
18,< 50,O=C(O)c1cccc(CN2CCN(c3c[nH]nc3-c3cc(Cl)c(O)cc3O)CC2)c1 [Example 29]

row,IC50 [µM],Compound
1,< 50,Oc1cc(O)c(-c2n[nH]cc2N2CCN(Cc3ccccn3)CC2)cc1Cl [Example 31]
2,< 50,NC(=O)c1ccc(CN2CCN(c3c[nH]nc3-c3cc(Cl)c(O)cc3O)CC2)cc1 [Example 36]
3,< 50,Cc1cc(NC(=O)c2ccc(CN3CCN(c4c[nH]nc4-c4cc(Cl)c(O)cc4O)CC3)cc2)no1 [Example 37]
4,< 50,"CCNC(=O)c1[nH]nc(-c2cc(Cl)c(O)cc2O)c1N1CCNCC1 [Example 51, 5-(5-Chloro-2,4-dihydroxy-phenyl)-4-piperazin-1-yl-2H-pyrazole-3-carboxylic acid ethylamide]"
5,> 50,"Oc1cc(F)ccc1-c1n[nH]cc1N1CCNCC1 [Example 52, 3-(4-Fluoro-2-hydroxyphenyl)-4-(piperazin-1-yl)-1H-pyrazole]"
6,> 50,Oc1cc(O)c(-c2n[nH]cc2N2CCNCC2)cc1Br [Example 55]
7,> 50,Cn1ncc(N2CCNCC2)c1-c1cc(Br)c(O)cc1O [Example 56]
8,> 50,CC(C)n1ncc(N2CCNCC2)c1-c1cc(Br)c(O)cc1O [Example 60]
9,> 50,CC(C)n1cc(N2CCNCC2)c(-c2cc(Br)c(O)cc2O)n1 [Example 61]
10,> 50,Oc1cc(O)c(-c2c(N3CCNCC3)cnn2Cc2ccccc2)cc1Br [Example 62]
11,> 50,Oc1cc(O)c(-c2nn(Cc3ccccc3)cc2N2CCNCC2)cc1Br [Example 63]
12,> 50,CCOC(=O)Cn1cc(N2CCNCC2)c(-c2cc(Br)c(O)cc2O)n1 [Example 64]
13,< 50,Oc1cc(O)c(-c2n[nH]cc2N2CCNCC2)cc1CCc1ccc2c(c1)OCO2 [Example 65]
14,< 50,Oc1cc(O)c(-c2n[nH]cc2N2CCNCC2)cc1CCc1cccc(F)c1 [Example 69]
15,< 50,Cc1cccc(CCc2cc(-c3n[nH]cc3N3CCNCC3)c(O)cc2O)c1 [Example 71]
16,< 50,Cc1ccc(CCc2cc(-c3n[nH]cc3N3CCNCC3)c(O)cc2O)cc1 [Example 72]
17,< 50,Cc1ccc(CCc2cc(-c3n[nH]cc3N3CCNCC3)c(O)cc2O)c(C)c1 [Example 73]

# — patent US7612201B2, “Pyrazole compounds” (Vernalis (Cambridge) Limited, priority 2002, dated 2009)
